{
  "source": "paper PMC2929395",
  "about": "(Chemistry & biology, 2010)",
  "key": {"PanK3": {"biological_target": "PanK3 (Homo sapiens, UniProt Q9H999)", "sequence (Q9H999 whole entry)": "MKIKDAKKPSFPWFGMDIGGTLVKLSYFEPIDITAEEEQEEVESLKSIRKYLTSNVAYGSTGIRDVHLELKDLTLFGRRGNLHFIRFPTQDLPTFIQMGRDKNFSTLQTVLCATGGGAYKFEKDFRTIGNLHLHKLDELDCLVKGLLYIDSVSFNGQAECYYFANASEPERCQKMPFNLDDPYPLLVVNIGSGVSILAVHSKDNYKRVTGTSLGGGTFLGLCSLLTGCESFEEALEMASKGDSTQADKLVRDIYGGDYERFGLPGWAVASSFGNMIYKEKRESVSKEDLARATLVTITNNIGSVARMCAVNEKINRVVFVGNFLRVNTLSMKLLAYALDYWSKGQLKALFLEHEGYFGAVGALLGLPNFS", "test": "TNP-ATP fluorescent ATP analog binding to PanK3"}, "PanK3(R207A)": {"biological_target": "T1, PanK3(R207A) (Homo sapiens, UniProt Q9H999, R207A)", "T1 sequence (Q9H999 1-370 R207A)": "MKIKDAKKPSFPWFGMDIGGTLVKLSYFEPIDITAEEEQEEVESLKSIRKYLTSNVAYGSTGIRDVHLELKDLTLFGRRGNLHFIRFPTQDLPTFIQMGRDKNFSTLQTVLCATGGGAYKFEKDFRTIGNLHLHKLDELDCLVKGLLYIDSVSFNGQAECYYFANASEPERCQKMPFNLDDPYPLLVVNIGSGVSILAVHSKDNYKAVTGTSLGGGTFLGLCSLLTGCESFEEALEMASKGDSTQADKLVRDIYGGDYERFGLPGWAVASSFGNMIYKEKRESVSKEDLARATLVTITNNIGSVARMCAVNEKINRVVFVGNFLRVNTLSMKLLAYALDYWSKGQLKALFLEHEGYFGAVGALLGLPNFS", "test": "TNP-ATP binding to PanK3"}, "PanK3(A269F)": {"biological_target": "T2, PanK3(A269F) (Homo sapiens, UniProt Q9H999, A269F)", "T2 sequence (Q9H999 1-370 A269F)": "T1 sequence (Q9H999 1-370 R207A) with A207R, A269F", "test": "TNP-ATP binding to PanK3"}, "PanK3(A267F)": {"biological_target": "T3, PanK3(A267F) (Homo sapiens, UniProt Q9H999, A267F)", "T3 sequence (Q9H999 1-370 A267F)": "T1 sequence (Q9H999 1-370 R207A) with A207R, A267F", "test": "TNP-ATP binding to PanK3"}},
  "note": "Numbering of substitutions follows the chain as printed.",
  "data": [
    {"molecule": "Nc1ncnc2c1ncn2[C@@H]1O[C@H](COP(=O)(O)OP(=O)(O)OP(=O)(O)O)[C@H]2OC3(O[C@H]21)C([N+](=O)[O-])=CC(=[N+]([O-])[O-])C=C3[N+](=O)[O-]", "note": "(stereo partly shown) [TNP-ATP]", "values": [
      {"measurement": "Kd", "setting": "PanK3", "result": "3.6 ± 0.9", "unit": "µM"},
      {"measurement": "Kd", "setting": "PanK3(R207A)", "result": "3 ± 0.3", "unit": "µM"},
      {"measurement": "Kd", "setting": "PanK3(A269F)", "result": "5.4 ± 0.8", "unit": "µM"},
      {"measurement": "Kd", "setting": "PanK3(A267F)", "result": "3.1 ± 0.8", "unit": "µM"}
    ]}
  ]
}
